Tested on: glycogen synthase
Assay: Glycogen Synthase (GS) Assay
Type: biochemical
Conditions: for EC50: compound concentration needed to give 50% maximum activation; for GS SC200: compound concentration needed to stimulate 200% of the enzyme activity
Experimental: Twelve μL per well of substrate solution containing glycogen (4.32 mg/'ml), 2.67 mM UDP-glucose, 21.6 mM phospho(enol)pyruvate and 2.7 mM NADH in 30 mM glycylglycine, pH 7.3 buffer was added into a polystyrene 384-well assay plate (BD Biosciences).
Compound solutions (8 μL/well) at various concentrations (0-300 μM) were added to the assay plate (columns 5-24). Compound solution contains 30 mM glycylglycine, pH 7.3, 40 mM KCl, 20 mM MgCl2, 9.2% DMSO, with (columns 15-24) or without (columns 5-14) 20 mM glucose 6-phosphate.
Enzyme solution (12 μL/well) containing glycogen synthase (16.88 μg/ml), pyruvate kinase (0.27 mg/ml), lactate dehydrogenase (0.27 mg/ml) in 50 mM Tris-HCl, pH 8.0, 27 mM DTT and bovine serum albumin (BSA, 0.2 mg/ml) was added to the assay plate (columns 3-24). As a blank control, enzyme solution without glycogen synthase was added into the top half wells of columns 1-2. To the bottom half wells of columns 1-2 were added a known activator, glucose 6-phosphate (at final concentration 5 mM) in addition to the enzyme solution. The reaction mixture was incubated at room temperature. The assay plate was then read for absorbance at 340 nm on an Envision reader every 3 minutes up to a total of 15 minutes.
The enzyme activity (with or without compound) was calculated by the reaction rate and represented by the optical density change (SOD) per minute. Percent stimulation of glycogen synthase activity by a compound at various concentrations was calculated by the following formula: % stimulation=100*Rs/Rt, Where Rs is the reaction rate of the enzyme in the presence of compound and Rt is the reaction rate of the enzyme in the absence of compound.
SC200 is defined as the compound concentration that is needed to stimulate 200% of the enzyme activity. EC50 is defined as the compound concentration that is needed to give 50% maximum activation.

SMILES	EC50	GS SC200
O=C(Nc1cccc(COc2ccc(-c3ccc(F)cc3F)cc2)c1)[C@H]1CCC[C@H]1C(=O)O (racemic) [Example 2, (trans)-2-[3-(2′,4′-Difluoro-biphenyl-4-yloxymethyl)-phenylcarbamoyl]-cyclopentanecarboxylic acid]	5.93 µM	3.24 µM
O=C(Nc1cccc(COc2ccc(-c3ccc(F)cc3F)cc2)c1)C1CCC[C@H]1C(=O)O (stereo in doubt) [Example 3, (1R,2R)-2-[3-(2′,4′-Difluoro-biphenyl-4-yloxymethyl)-phenylcarbamoyl]-cyclopentanecarboxylic acid]	4.4 µM	1.3 µM
O=C(O)C1CCC[C@@H]1C(=O)Nc1cccc(COc2ccc(-c3ccc(F)cc3F)cc2)c1 (stereo in doubt) [Example 4, (1S,2S)-2-[3-(2′,4′-Difluoro-biphenyl-4-yloxymethyl)-phenylcarbamoyl]-cyclopentanecarboxylic acid]	6.15 µM	2.09 µM
O=C(O)[C@H]1CCC[C@H]1C(=O)Nc1cccc(COc2ccc(-c3ccc(F)cc3F)cc2)c1 (stereo in doubt) [Example 6, (1S,2R)-2-[3-(2′,4′-Difluoro-biphenyl-4-yloxymethyl)-phenylcarbamoyl]-cyclopentanecarboxylic acid]	3.14 µM	0.77 µM
O=C(O)CCC(=O)Nc1cccc(COc2ccc(-c3ccc(F)cc3F)cc2)c1 [Example 1, N-[3-(2′,4′-Difluoro-biphenyl-4-yloxymethyl)-phenyl]-succinamic acid]	6.96 µM	2.69 µM
O=C(Nc1cccc(COc2ccc(-c3ccc(F)cc3F)cc2)c1)[C@H]1CCC[C@H]1C(=O)O [Example 5, (1R,2S)-2-[3-(2′,4′-Difluoro-biphenyl-4-yloxymethyl)-phenylcarbamoyl]-cyclopentanecarboxylic acid]	2.84 µM	0.65 µM
COc1cc(F)c(F)cc1-c1ccc(OCc2cccc(N3CCC[C@H]3C(=O)O)c2)cc1 [Example 7, (S)-1-[3-(4′,5′-Difluoro-2′-methoxy-biphenyl-4-yloxymethyl)-phenyl]-pyrrolidine-2-carboxylic acid]	3.71 µM	0.7 µM
COc1cc(F)c(F)cc1-c1ccc(OCc2cccc(N3CCC[C@H]3CC(=O)O)c2)cc1 [Example 8, {(S)-1-[3-(4′,5′-Difluoro-2′-methoxy-biphenyl-4-yloxymethyl)-phenyl]-pyrrolidin-2-yl}-acetic acid]	6.37 µM	2.43 µM
COc1cc(F)c(F)cc1-c1ccc(OCc2cccc(N(CC(=O)O)C(C)=O)c2)cc1 [Example 9, {Acetyl-[3-(4′,5′-difluoro-2′-methoxy-biphenyl-4-yloxymethyl)-phenyl]-amino}-acetic acid]	1.02 µM	0.33 µM
CS(=O)(=O)Nc1cccc(COc2ccc(-c3cc(F)c(F)cc3F)cc2)c1 [Example 10, N-[3-(2′,4′,5′-Trifluoro-biphenyl-4-yloxymethyl)-phenyl]-methanesulfonamide]	5.71 µM	2.41 µM
COc1cc(F)c(F)cc1-c1ccc(OCc2cccc(NS(C)(=O)=O)c2)cc1 [Example 11, N-[3-(4′,5′-Difluoro-2′-methoxy-biphenyl-4-yloxymethyl)-phenyl]-methanesulfonamide]	2.75 µM	1.1 µM
O=S(=O)(Nc1cccc(COc2ccc(-c3cc(F)c(F)cc3F)cc2)c1)C(F)(F)F [Example 12, C,C,C-Trifluoro-N-[3-(2′,4′,5′-trifluoro-biphenyl-4-yloxymethyl)-phenyl]methanesulfonamide]	1.48 µM	0.95 µM
COc1cc(F)c(F)cc1-c1ccc(OCc2cccc(NS(=O)(=O)C(F)(F)F)c2)cc1 [Example 13, N-[3-(4′,5′-Difluoro-2′-methoxy-biphenyl-4-yloxymethyl)-phenyl]-C,C,C-trifluoromethanesulfonamide]	0.44 µM	0.18 µM
